Assay results taken from the METLIN SMRT retention time set (Domingo-Almenara et al. 2019).

Assay: gradient 5% acetonitrile 3 min, to 50% in 2 min, to 85% in 15 min, held 3 min, 100 µL/min
Conditions: column: Zorbax Extend-C18 2.1 x 50 mm; eluents: water / acetonitrile, 0.1% formic acid
How it was run: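 Retention times come from adduct peaks that were picked computationally and then checked by hand. The standards, pure and pooled in mixtures of ~100 molecules, were run on a Zorbax Extend-C18 column (2.1 × 50 mm, 1.8 μm) at 100 μL/min with water and acetonitrile, each with 0.1% formic acid. Detection was by quadrupole time-of-flight mass spectrometry in positive and negative ionization mode, with a dead volume of 40 μL and a dwell volume of 900 μL.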

For `O=C(Cn1nc(C(=O)N2CCCC2)c2ccccc21)N1CCN(C2CCCCC2)CC1`, the RP-LC retention time was 597 s.

Work on `CCN1C(=O)COc2ccc(-c3noc(CNC(=O)C(c4ccccc4)c4ccccc4)n3)cc21` yielded an RP-LC retention time of 975 s.

For `Cc1ccc(-c2ccc(N3CCN(c4ccccn4)CC3)nn2)cc1S(=O)(=O)N1CCCCCC1`, the RP-LC retention time was 716 s.

For `COc1ccc(-c2nc3n(n2)C2(CCCCC2)[C@@H]2CCCC[C@@H]2N3C(=O)c2cccs2)cc1`, the RP-LC retention time was 1270 s.

In the case of `COc1ccc(-c2nnc(-c3ccc(C)c(S(=O)(=O)N4CCC(C(=O)O)CC4)c3)o2)cc1OC`, the RP-LC retention time is reported as 785 s.

`COc1ccc(Cc2cnc(NC(=O)C3COc4ccccc4C3)s2)cc1` (configuration not stated) gave an RP-LC retention time of 952 s.

With `CCCN1CN=C(Nc2nc(C)c3cccc(OC)c3n2)NC1` the RP-LC retention time was 644 s.

`CCn1c(=O)c(C)nc2cc(-c3noc(/C=C/c4ccc(OC)cc4)n3)ccc21` gave an RP-LC retention time of 1140 s.

With `Cc1ccc(-c2nc3ccccn3c2Nc2ccc(F)cc2)cc1` the RP-LC retention time was 717 s.

With `O=C(NCc1ccc(F)cc1)C1CCN(c2cnc3nccnc3c2)CC1` the RP-LC retention time was 769 s.

`COc1ccc(OC)c(-c2cn3ccn(-c4ccc(Cl)cc4)c(=O)c3n2)c1` showed an RP-LC retention time of 887 s.

For `Cc1ccc(CN(C)Cc2cc(=O)n3cc(Cl)ccc3n2)cc1`, the RP-LC retention time was 629 s.

Work on `COc1ccc([N+](=O)[O-])cc1NC(=O)Cc1ccc(S(C)(=O)=O)cc1` yielded an RP-LC retention time of 695 s.

Work on `COc1cccc(CN2CCC3(CC2)NCCc2c3[nH]c3ccccc23)c1` yielded an RP-LC retention time of 583 s.

Compound `COc1ccc(Cl)cc1NC(=O)N(C)CCc1noc(COc2ccccc2F)n1` has an RP-LC retention time of 979 s.

Compound `Cc1ccc(CN2CCN(C3CCN(C(=O)Nc4ccccc4C(F)(F)F)CC3)C(=O)C2=O)cc1` has an RP-LC retention time of 810 s.

With `CC1CCN(c2cc(-n3cnc(C(=O)N4CCCCCC4)c3)ncn2)CC1` the RP-LC retention time was 1010 s.

For `CCn1cc(C)c(C(=O)O)c1CC(=O)Nc1ccc(F)cc1F`, the RP-LC retention time was 811 s.

`COC(=O)c1ccc2c(=O)n(CCc3ccccc3)c(N3CCSCC3)nc2c1` showed an RP-LC retention time of 1150 s.

In the case of `COC(=O)c1ccc(NC(=O)C2CC(=O)N(CCc3c[nH]c4ccc(F)cc34)C2)cc1` (configuration not stated), the RP-LC retention time is reported as 799 s.

In the case of `CCOc1ccc(C2C(C(=O)OCCOC)=C(C)NC3=C2C(=O)CCC3)cc1OC` (configuration not stated), the RP-LC retention time is reported as 700 s.

`CC(=O)N1c2ccc(S(=O)(=O)N3CCCCCC3)cc2CC1C(=O)NC(C)c1ccccc1` (configuration not stated) showed an RP-LC retention time of 925 s.

For `COc1ccccc1-c1nc(Cn2nnc(-c3nc(-c4ccccc4Cl)no3)c2C)c(C)o1`, the RP-LC retention time was 1120 s.

Compound `Cc1csc(-c2cc(S(=O)(=O)NC(C)C)c(C)n2C)n1` has an RP-LC retention time of 852 s.

`O=C(NCC1CCN(C(=O)Oc2ccccc2)CC1)C(=O)Nc1cccnc1` showed an RP-LC retention time of 610 s.

With `CCOc1ccc2ncc(S(=O)(=O)c3ccc(Cl)cc3)c(N3CCN(CC)CC3)c2c1` the RP-LC retention time was 685 s.

For `Cn1ncc(NC(=O)Cc2cccc(F)c2)c(N2CCOCC2)c1=O`, the RP-LC retention time was 722 s.

In the case of `COc1ccc(OCc2noc(CNC(=O)Nc3cc(OC)c(OC)c(OC)c3)n2)cc1`, the RP-LC retention time is reported as 743 s.

Work on `COCc1nnc(C(=O)Nc2cccc(C(=O)NCCc3c[nH]c4ccc(OC)cc34)c2)s1` yielded an RP-LC retention time of 799 s.

Compound `O=C(CCc1ccccc1)NC1CCS(=O)(=O)C1` (configuration not stated) has an RP-LC retention time of 619 s.

`CC(=O)N1CCc2c([nH]c3ccccc23)C12C(=O)N(C)c1ccc(Br)cc12` (configuration not stated) gave an RP-LC retention time of 857 s.

With `CC(C)NC(=O)C1CCN(S(C)(=O)=O)c2cc(Cl)ccc2O1` (configuration not stated) the RP-LC retention time was 777 s.

With `Cc1ccc(Nc2cc(N3CCC(C(=O)N4CCCC4)CC3)ncn2)cc1` the RP-LC retention time was 632 s.

`COCCNC(=O)CN1CCN(c2cc(C(=O)O)c3cc(NC(=O)c4ccccc4)ccc3n2)CC1` gave an RP-LC retention time of 592 s.

With `O=C(Cn1cccc(-c2nc(-c3ccc(F)cc3)no2)c1=O)Nc1ccc(Br)cc1F` the RP-LC retention time was 964 s.

Compound `O=C(CN1C(=O)C(C(=O)N2CCCCCC2)Sc2ccccc21)N1CCN(c2ccccc2)CC1` (configuration not stated) has an RP-LC retention time of 663 s.

With `CC(=O)c1ccc(NC(=O)C2CC(=O)N(c3ccc4oc(C)nc4c3)C2)cc1` (configuration not stated) the RP-LC retention time was 685 s.

Compound `CC(C)CN1C(=O)c2ccccc2C(C(=O)NCCCN2CCCC2=O)C1c1cccs1` (configuration not stated) has an RP-LC retention time of 740 s.

With `COC(=O)CNC(=O)NC(C)C(=O)N1CCc2ccccc21` (configuration not stated) the RP-LC retention time was 662 s.

For `CC1CCN(S(=O)(=O)c2ccc(Cl)c(-c3nnc(-c4ccccc4)o3)c2)CC1`, the RP-LC retention time was 1250 s.

For `CCc1ccccc1NC(=O)c1sc(-c2cn(C)c3ncccc23)nc1C`, the RP-LC retention time was 971 s.

With `CCN(CC)S(=O)(=O)N1CCC(C(=O)NCc2ccc(OC)cc2)CC1` the RP-LC retention time was 795 s.

`COC(=O)c1c(-c2ccc(Cl)cc2)noc1NCCCN1CCOCC1` gave an RP-LC retention time of 667 s.

`O=c1c2ncccc2n(Cc2c(F)cccc2Cl)c(=O)n1Cc1cccnc1` gave an RP-LC retention time of 852 s.

In the case of `CCCc1noc(-c2cccnc2N2CCCN(Cc3cccc(F)c3)CC2)n1`, the RP-LC retention time is reported as 722 s.

`N#Cc1c(NC(=O)c2ccc([N+](=O)[O-])cc2Cl)sc2c1CCCC2` showed an RP-LC retention time of 1050 s.

For `Cc1cc(Cl)ccc1NC(=O)Cn1cnc2nc3c(cc2c1=O)CCCC3`, the RP-LC retention time was 770 s.

For `CCCCCNC(=O)c1cnn2c(-c3ccc4c(c3)OCO4)ccnc12`, the RP-LC retention time was 1010 s.

In the case of `O=C(NCc1cccs1)c1ccc2ncnc(N3CCCC3)c2c1`, the RP-LC retention time is reported as 617 s.

`CC(=O)N1CCN(C(=O)CN2C(=O)C3CCCCN3c3ccc(S(=O)(=O)N(C)C)cc32)CC1` (configuration not stated) showed an RP-LC retention time of 680 s.

`COc1ccc(C2C(C(=O)N3CCCC(C)C3)CCC(=O)N2c2cc(OC)c(OC)c(OC)c2)cc1` (configuration not stated) gave an RP-LC retention time of 772 s.

`CCc1cccc2[nH]c3cc([N+](=O)[O-])ccc3c12` showed an RP-LC retention time of 1180 s.

Compound `O=C(Nc1ccc(F)c(Cl)c1)c1c(O)c2cccnc2n(Cc2ccccc2)c1=O` has an RP-LC retention time of 1230 s.

In the case of `NC(=O)C1CCN(C(=O)C2COC3(CCCCC3)N2C(=O)c2ccccc2)CC1` (configuration not stated), the RP-LC retention time is reported as 606 s.

`O=C(Cn1c(=O)oc2ccccc21)NCCc1csc2nc(-c3ccccc3F)nn12` showed an RP-LC retention time of 746 s.

`Cc1cc(C(=O)N2C[C@@H](CO)[C@H](c3nc(C4CC4)no3)C2)c(C)o1` gave an RP-LC retention time of 706 s.

With `O=C(Cn1c(=O)n(C2CCCCC2)c2ncccc21)NCc1ccccc1` the RP-LC retention time was 895 s.

`Cc1ccc(CNC(=O)Cc2nnc(-c3ccc4ncccc4c3)o2)cc1` gave an RP-LC retention time of 832 s.

Compound `CCOc1ccccc1CNC(=O)C1CCN(S(=O)(=O)c2ccc3[nH]c(=O)ccc3c2)CC1` has an RP-LC retention time of 750 s.

`CCCN(Cc1ccc(OC)c(OC)c1)Cc1cc(=O)n2cc(Cl)ccc2n1` showed an RP-LC retention time of 632 s.

Work on `CCc1ccc(NC(=O)N2CCC(C(=O)NCc3csc(C)n3)CC2)cc1` yielded an RP-LC retention time of 660 s.

Compound `CC(C)NC(=O)N1CCCC1c1nc(-c2cccc(Cl)c2)no1` (configuration not stated) has an RP-LC retention time of 906 s.

In the case of `Cc1ccc(CNC(=O)c2c(C)oc3ccn(C)c(=O)c23)cc1`, the RP-LC retention time is reported as 919 s.

`O=S1(=O)C[C@H](N2CCN(c3ncccn3)CC2)[C@@H](S(=O)(=O)c2ccc(F)cc2)C1` gave an RP-LC retention time of 772 s.

`COCc1c(C(=O)O)nnn1-c1ccc(C)c(F)c1` showed an RP-LC retention time of 741 s.

`COc1ccc(C(=O)CN(Cc2ccccc2)C2=NCCS2)cc1` showed an RP-LC retention time of 600 s.

In the case of `O=C(CSc1nnc2sc3ccccc3n12)c1ccc(F)cc1`, the RP-LC retention time is reported as 778 s.

`O=c1c2cnn(-c3ccc(Br)cc3)c2ncn1Cc1nc(-c2ccccc2)no1` gave an RP-LC retention time of 1150 s.

For `O=C(Nc1ccc(F)cc1)N1CCc2nc(-c3ccc(F)cc3)ncc2C1`, the RP-LC retention time was 926 s.

`Cn1nc(-c2nnc(-c3ccccc3)o2)c2c1CCN(S(=O)(=O)c1ccc3c(c1)CCCC3)C2` showed an RP-LC retention time of 1110 s.

`O=C1/C(=C\c2ccc(O)c(O)c2)Oc2c1ccc(O[C@@H]1O[C@H](CO)[C@@H](O)[C@H](O)[C@H]1O)c2O` gave an RP-LC retention time of 638 s.

Compound `Cc1cc(-c2nnc(NC(=O)c3cnn(-c4ccccc4)c3C)o2)c(C)o1` has an RP-LC retention time of 798 s.

`CCn1nccc1C(=O)N1CCCC1c1cccc(C)c1` (configuration not stated) gave an RP-LC retention time of 849 s.

`CCn1c(C(=O)N2CCN(c3cccc(OC)c3)CC2)cc2sccc21` showed an RP-LC retention time of 1050 s.

In the case of `Cc1ccsc1C(=O)N1CCC2(CC1)N=C(c1cccc(Br)c1)NO2`, the RP-LC retention time is reported as 922 s.

Compound `CCn1ccc2sc(C)c(C(=O)NCc3cccc(OC)c3)c2c1=O` has an RP-LC retention time of 785 s.

With `Cc1ccc(-c2nc3sc(N4CCCCC4)nn3c2NC(=O)C2CCCO2)cc1` (configuration not stated) the RP-LC retention time was 901 s.

`O=C(c1ccoc1)N1CCCC(c2nc(-c3ccc(F)cc3)n[nH]2)C1` (configuration not stated) showed an RP-LC retention time of 710 s.

Work on `Cc1nccn1C1CN(C(=O)C(C)Oc2ccccc2)C1` (configuration not stated) yielded an RP-LC retention time of 599 s.

`O=C(CSc1nc2ccccc2nc1SCC(=O)N1CCCC1)N1CCCC1` gave an RP-LC retention time of 743 s.

With `CC1CCN(C(=O)c2cn(-c3cc(N4CCC(C)CC4)ncn3)cn2)CC1` the RP-LC retention time was 1030 s.

With `CCOC(=O)c1c(C)c(C(=O)CN(CC2CCCO2)C(=O)c2ccc(Cl)cc2)c(C)n1C` (configuration not stated) the RP-LC retention time was 987 s.

`O=C(NCc1ccco1)C1CCN(c2ccc(Sc3ccccc3)nn2)CC1` gave an RP-LC retention time of 1060 s.

`COc1ccc(-c2cc3n(n2)CCCN(S(=O)(=O)c2cccc4cccnc24)C3)cc1` showed an RP-LC retention time of 907 s.

In the case of `CC(C)NC(=O)CC1Sc2ncccc2N(C)C1=O` (configuration not stated), the RP-LC retention time is reported as 604 s.

Work on `COc1ccc(-c2cc3c(=O)n(CC(=O)N4CCCC4)ncn3n2)cc1` yielded an RP-LC retention time of 746 s.

With `O=C(NCc1cccnc1)c1cn2ccnc(-c3ccccc3)c2n1` the RP-LC retention time was 599 s.
